Columns and labels:
Test in all cases: selective drug sensitivity score (sDSS, relative to normal bone marrow) (sDSS (score)); higher = more potent and effective on the cell line relative to normal bone marrow cells
Conditions in all cases: 72 h
MHH-CALL-3 = test system: MHH-CALL-3
P12-ICHIKAWA = test system: P12-ICHIKAWA
NALM-16 = test system: NALM-16
HPB-ALL = test system: HPB-ALL
KASUMI-10 = test system: KASUMI-10
380 = test system: 380
MOLT-14 = test system: MOLT-14
RCH-ACV = test system: RCH-ACV
PF-382 = test system: PF-382
COG-LL-394h = test system: COG-LL-394h
KASUMI-2 = test system: KASUMI-2
RPMI-8402 = test system: RPMI-8402
MOLT-4 = test system: MOLT-4
ALL-SIL = test system: ALL-SIL
KARPAS-45 = test system: KARPAS-45
COG-LL-402h = test system: COG-LL-402h
DND-41 = test system: DND-41
COG-LL-332h = test system: COG-LL-332h
NALM-6 = test system: NALM-6
CCRF-CEM = test system: CCRF-CEM
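Note: ALL cell lines in 384-well plates, five doses spanning 10,000-fold, each plate scaled between vehicle and 100 µmol/L benzalkonium chloride controls, sDSS an adapted area-under-curve metric.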

Row | SMILES | selective drug sensitivity score (MHH-CALL-3) | selective drug sensitivity score (P12-ICHIKAWA) | selective drug sensitivity score (NALM-16) | selective drug sensitivity score (HPB-ALL) | selective drug sensitivity score (KASUMI-10) | selective drug sensitivity score 380 | selective drug sensitivity score (MOLT-14) | selective drug sensitivity score (RCH-ACV) | selective drug sensitivity score (PF-382) | selective drug sensitivity score (COG-LL-394h) | selective drug sensitivity score (KASUMI-2) | selective drug sensitivity score (RPMI-8402) | selective drug sensitivity score (MOLT-4) | selective drug sensitivity score (ALL-SIL) | selective drug sensitivity score (KARPAS-45) | selective drug sensitivity score (COG-LL-402h) | selective drug sensitivity score (DND-41) | selective drug sensitivity score (COG-LL-332h) | selective drug sensitivity score (NALM-6) | selective drug sensitivity score (CCRF-CEM)
1 | CCOC(=O)CCNc1cc(N2CCc3ccccc3CC2)nc(-c2ccccn2)n1 [GSK-J4] (top concentration 100000 nM) | -13.2 | -7.68 | -8.38 | 1.62 | -11.8 | -9.38 | -3.98 | -8.58 | -7.58 | -9.68 | -10.8 | -8.18 | -7.98 | -4.58 | -7.28 | -7.88 | -6.88 | -7.08 | -9.98 | -6.68
2 | Cc1cc(Nc2cc(CN3CCOCC3)c3nc(C)c(Cc4ccc(Cl)cc4F)n3n2)n[nH]1 [Gandotinib] (top concentration 10000 nM) | 1.18 | -0.62 | -1.52 | 1.58 | 7.28 | -8.02 | 3.18 | 8.88 | 1.88 | 0.88 | 7.18 | 0.78 | 4.88 | 9.08 | 9.48 | 5.28 | 7.28 | 2.18 | 4.58 | 5.68
3 | NC(=O)NO [Hydroxyurea] (top concentration 1000000 nM) | -4.44 | 6.46 | 0.86 | -1.24 | 1.86 | -1.04 | 9.16 | 9.66 | 1.26 | -1.74 | -2.14 | 3.46 | 1.56 | 3.56 | 2.86 | 1.56 | 1.16 | 12.5 | 2.56 | 3.96
4 | Cc1ccc(NC(=O)c2ccc(CN3CCN(C)CC3)cc2)cc1Nc1nccc(-c2cccnc2)n1 [Imatinib] (top concentration 10000 nM) | -0.44 | 0.16 | -0.44 | 1.06 | -0.44 | -0.44 | 0.46 | 2.16 | -0.24 | 3.06 | -0.44 | 1.46 | -0.34 | 24.9 | 1.96 | -0.44 | 0.26 | 10.2 | -0.44 | -0.44
5 | CC(C)NC[C@@H](C(=O)N1CCN(c2ncnc3c2[C@H](C)C[C@H]3O)CC1)c1ccc(Cl)cc1 [Ipatasertib] (top concentration 10000 nM) | 0.2 | 2.9 | 1.7 | 0.9 | 0.7 | 7 | -1.8 | 12 | 4.2 | -0.3 | 7.9 | 4.8 | 7.1 | 2.9 | 5.2 | 7.3 | 1.1 | 5.8 | 6.2 | 10.7
6 | CCC(C)n1ncn(-c2ccc(N3CCN(c4ccc(OCC5COC(Cn6cncn6)(c6ccc(Cl)cc6Cl)O5)cc4)CC3)cc2)c1=O (stereo not given) [Itraconazole] (top concentration 5000 nM) | -4.32 | -0.32 | -4.32 | 5.68 | -4.32 | -1.72 | -1.02 | 5.48 | 0.38 | 1.88 | -3.22 | 0.98 | -1.92 | 2.88 | 6.18 | -2.12 | 6.98 | 2.48 | -1.02 | -1.22
7 | Cc1sc2c(c1C)C(c1ccc(Cl)cc1)=N[C@@H](CC(=O)OC(C)(C)C)c1nnc(C)n1-2 [JQ1] (top concentration 10000 nM) | 16 | 5.12 | 2.02 | 1.32 | 7.22 | -0.88 | -0.58 | 12.3 | 5.22 | -2.88 | -5.08 | 3.12 | -4.28 | -1.08 | 9.32 | 8.12 | 2.52 | -3.08 | 4.32 | 1.32
8 | CCNC(=O)c1noc(-c2cc(C(C)C)c(O)cc2O)c1-c1ccc(CN2CCOCC2)cc1 [Luminespib] (top concentration 1000 nM) | 8.3 | -5 | -2.9 | -2.5 | 4.4 | 6.3 | -0.6 | 3.6 | -1.4 | -5.2 | 6.5 | -3.8 | -1.1 | -0.1 | -2.7 | 4.1 | -2 | 7.1 | -0.5 | -0.5
9 | O=C(c1cccc(Cl)c1F)N1CCN(Cc2cccc(Nc3nccs3)n2)CC1 [MK-8745] (top concentration 10000 nM) | 7.1 | 11.3 | 12.4 | 7 | 11.2 | 18.3 | 7.8 | 9.7 | 8.5 | 5 | 6.8 | 9.4 | 11.8 | 11.8 | 23.8 | 14.1 | 5.5 | 14 | 9.6 | 12.1
10 | Cc1ccc(NC(=O)c2ccc(CN3CCN(C)CC3)cc2)cc1Nc1nc(-c2cccnc2)cs1 [Masitinib] (top concentration 10000 nM) | -4.38 | 0.32 | -4.38 | -4.18 | -3.48 | -4.38 | 1.12 | 0.02 | 1.42 | 3.32 | -4.38 | 1.82 | -0.38 | 11.6 | 3.22 | -1.48 | -0.28 | 5.52 | 0.32 | 2.42
11 | CCN(CC)CCCC(C)Nc1c2ccc(Cl)cc2nc2ccc(OC)cc12 (stereo not given) [Mepacrine] (top concentration 50000 nM) | -1.2 | -7.8 | -7.9 | -6.8 | 0.6 | -1.7 | -0.7 | -4.5 | -4.6 | -5.7 | -9.5 | -7.1 | -0.6 | -7.3 | -0.8 | 2.7 | -5.1 | -0.4 | -5.5 | -5
12 | COc1ccc(-c2ccc3ncc4c(c3c2)n(-c2ccc(N3CCNCC3)c(C(F)(F)F)c2)c(=O)n4C)cn1 [NVP-BGT226] (top concentration 1000 nM) | 0.62 | 2.72 | -0.18 | -0.18 | -0.18 | 12.2 | 1.52 | 20.1 | 6.02 | -0.48 | 7.92 | 4.42 | 5.42 | 2.82 | 3.42 | 5.92 | 2.12 | 5.02 | 4.32 | 10.1
13 | COc1nc(N)nc2c1ncn2[C@@H]1O[C@H](CO)[C@@H](O)[C@@H]1O [Nelarabine] (top concentration 10000 nM) | -3.72 | 4.68 | -9.52 | -2.22 | -5.82 | -6.32 | 8.78 | 1.98 | -1.62 | -9.72 | -10.2 | 2.68 | -0.72 | -2.82 | -9.92 | -2.32 | 8.98 | 2.78 | -4.82 | 4.18
14 | Cc1cn(-c2cc(NC(=O)c3ccc(C)c(Nc4nccc(-c5cccnc5)n4)c3)cc(C(F)(F)F)c2)cn1 [Nilotinib] (top concentration 10000 nM) | 0.5 | 0.6 | 0 | 0 | 0 | 6.1 | 2.1 | 8.3 | 2.7 | 0.7 | 4.1 | 1.8 | 3.6 | 43.3 | 4.2 | 0 | 2.8 | 16.4 | 0 | 2.1
15 | NC(=O)c1cccc2cn(-c3ccc(C4CCCNC4)cc3)nc12 (stereo not given) [Niraparib] (top concentration 10000 nM) | 10.7 | 0.68 | -2.82 | -3.32 | 1.58 | 15.8 | 12.8 | 6.48 | -2.12 | -2.02 | 4.28 | 1.98 | 3.58 | 2.88 | -0.62 | 8.48 | 2.78 | 3.88 | 1.18 | 4.68
16 | COc1ccc(C[C@H](NC(=O)[C@H](C)NC(=O)CN2CCOCC2)C(=O)N[C@@H](Cc2ccccc2)C(=O)[C@@]2(C)CO2)cc1 [ONX-0914] (top concentration 10000 nM) | 7.2 | 7.3 | -2 | -2.4 | 0.9 | 5.5 | 0.5 | -4.4 | 6.5 | 6.2 | 0.6 | -3.1 | 1.9 | 3.8 | 1.8 | 2 | 11.7 | 2.2 | -1.7 | 3.1
17 | CC(=O)c1cnc2ccc(-c3cc(Cl)c(O)c(Cl)c3)nc2c1N[C@H]1CC[C@H](CN(C)C)CC1 [OTS167] (top concentration 1000 nM) | -1.02 | -3.32 | -4.52 | -0.42 | 5.88 | 9.38 | 2.78 | 8.28 | -2.62 | 4.08 | 4.58 | 0.28 | -1.32 | 2.08 | 0.58 | 7.08 | -1.12 | 3.78 | -1.52 | 2.48
18 | COC(=O)C[C@](O)(CCCC(C)(C)O)C(=O)O[C@@H]1C(OC)=C[C@]23CCCN2CCc2cc4c(cc2[C@H]13)OCO4 [Omacetaxine] (top concentration 10000 nM) | 15.6 | 0.82 | -8.18 | -4.48 | 4.82 | 14.1 | 5.62 | 7.22 | 0.62 | 13 | 10.8 | 3.92 | 3.32 | -1.88 | 3.72 | 7.92 | -2.78 | 2.62 | 4.52 | 3.02

From the supplement of paper PMC8967900
